“And” between values parts separate entries of the source, which are not always exact repeats. Equal entries are not always repeated. Where two headings read alike, the source gives them in different places. One block for each compound: values may come before it.
What was measured:
[1] = Toxicokinetics of BAK in rat plasma after a single oral dose; assay type: in vivo, Sprague–Dawley rats
Experimental: ABT, a broad-spectrum nonspecific CYP inhibitor, was selected as a positive control inhibitor of CYP enzymes. Aristolochic acid A (AA I) was selected as the nephrotoxicity positive control in the study.
The plasma samples were separated by centrifugation at 4000 rpm for 15 min. […] Subsequently, 10 µL of internal standard solution (tanshinone II A, 10 µg/mL) and 0.3 mL of acetonitrile were added to 0.1 mL of plasma or homogenates, and centrifuged at 13,300 rpm for 15 min after 2 min of vortexing. The supernatant was reconstituted in 100 µL of mobile phase after drying under 40 °C nitrogen, the mixture then was vortexed for 5 min and centrifuged at 13,300 rpm for 15 min. Finally, 20 µL of supernatant was injected for HPLC analysis.
The mobile phase consisted of methanol and water with 0.1% formic acid (89:11, v/v) and was supplied at a flow rate of 0.8 mL/min. The detection wavelength was set to 262 nm.

CYP1A2 = biological target: T1, CYP1A2 (Homo sapiens, UniProt P05177); assay: Inhibition of CYP activities by GA in HLMs (phenacetin); assay type: biochemical
T1 construct: tissue iPhase Pharmaceutical Services (Beijing, China) Lot # 7MMC011; host or cells: pooled human liver microsomes
T1 sequence (P05177 1-516): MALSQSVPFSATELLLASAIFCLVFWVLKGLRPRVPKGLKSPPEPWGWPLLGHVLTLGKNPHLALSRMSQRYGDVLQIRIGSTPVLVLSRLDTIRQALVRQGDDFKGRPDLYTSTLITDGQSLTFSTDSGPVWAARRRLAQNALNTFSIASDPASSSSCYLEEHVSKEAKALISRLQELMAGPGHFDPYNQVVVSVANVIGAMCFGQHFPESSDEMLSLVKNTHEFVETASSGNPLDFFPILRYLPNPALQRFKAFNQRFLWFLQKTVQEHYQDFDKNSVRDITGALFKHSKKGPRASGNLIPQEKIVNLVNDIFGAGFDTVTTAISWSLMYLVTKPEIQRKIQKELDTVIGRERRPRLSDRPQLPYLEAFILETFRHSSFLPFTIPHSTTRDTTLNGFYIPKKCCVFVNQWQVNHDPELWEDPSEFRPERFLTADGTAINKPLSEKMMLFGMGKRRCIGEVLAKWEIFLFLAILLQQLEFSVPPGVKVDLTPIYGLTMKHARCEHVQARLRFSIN
Experimental: (§1) The samples containing HLMs were prepared in an ice bath, and three replicates of each dose were tested.
(§2) The reaction system consisted of 0.5 g/L HLMs, 1 mM NADPH, 25 µM phenacetin (CYP1A2 substrate), 25 µM tolbutamide (CYP2C9 substrate), 25 µM mephenytoin (CYP2C19 substrate), 10 µM dextromethorphan (CYP2D6 substrate) and 10 µM midazolam (CYP3A4 substrate). After incubation at 37 °C for 30 min, 200 µL of methanol containing 100 µg/L propranolol hydrochloride was added to terminate the reaction. The samples were then treated, and the corresponding substrate metabolites of CYP isoforms were detected according to a previously described method ([Shen et al., 2013]).

CYP2C9 = biological target: T2, CYP2C9 (Homo sapiens, UniProt P11712); assay: Inhibition of CYP activities by GA in HLMs (tolbutamide); assay type: biochemical
T2 construct: tissue iPhase Pharmaceutical Services (Beijing, China) Lot # 7MMC011; host or cells: pooled human liver microsomes
T2 sequence (P11712 whole entry): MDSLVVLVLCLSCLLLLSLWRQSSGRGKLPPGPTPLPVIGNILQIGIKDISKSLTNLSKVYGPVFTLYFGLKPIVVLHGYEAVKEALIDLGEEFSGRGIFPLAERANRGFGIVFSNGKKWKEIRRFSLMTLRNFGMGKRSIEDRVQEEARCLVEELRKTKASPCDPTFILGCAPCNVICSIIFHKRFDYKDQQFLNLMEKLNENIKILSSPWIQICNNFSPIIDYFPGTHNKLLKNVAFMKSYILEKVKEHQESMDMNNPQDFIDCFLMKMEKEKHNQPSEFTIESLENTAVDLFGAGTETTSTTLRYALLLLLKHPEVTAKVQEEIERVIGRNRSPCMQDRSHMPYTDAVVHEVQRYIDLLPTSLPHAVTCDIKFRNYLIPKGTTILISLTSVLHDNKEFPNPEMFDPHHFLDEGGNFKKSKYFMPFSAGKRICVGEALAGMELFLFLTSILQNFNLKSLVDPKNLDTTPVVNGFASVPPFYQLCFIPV
Experimental: as §1, §2

CYP2C19 = biological target: T3, CYP2C19 (Homo sapiens, UniProt P33261); assay: Inhibition of CYP activities by GA in HLMs (mephenytoin); assay type: biochemical
T3 construct: was investigated in HLMs; tissue iPhase Pharmaceutical Services (Beijing, China) Lot # 7MMC011; host or cells: pooled human liver microsomes
T3 sequence (P33261 whole entry): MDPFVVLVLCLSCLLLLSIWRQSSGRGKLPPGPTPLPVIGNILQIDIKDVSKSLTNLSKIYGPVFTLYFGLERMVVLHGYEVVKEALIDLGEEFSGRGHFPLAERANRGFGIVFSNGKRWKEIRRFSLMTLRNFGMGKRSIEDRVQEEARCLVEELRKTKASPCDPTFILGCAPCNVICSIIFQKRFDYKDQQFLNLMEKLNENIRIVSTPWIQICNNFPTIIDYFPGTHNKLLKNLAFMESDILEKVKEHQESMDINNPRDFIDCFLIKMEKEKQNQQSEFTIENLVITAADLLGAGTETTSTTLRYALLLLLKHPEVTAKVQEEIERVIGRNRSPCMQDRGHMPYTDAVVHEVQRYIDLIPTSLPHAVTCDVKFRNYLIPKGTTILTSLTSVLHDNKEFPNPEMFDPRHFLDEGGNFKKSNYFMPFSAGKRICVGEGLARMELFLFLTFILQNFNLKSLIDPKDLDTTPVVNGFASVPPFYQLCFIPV
Experimental: as §1, §2

[2] = Sprague-Dawley, plasma, rat, single oral, BAK 200 mg/kg, with ABT or GA 100 mg/kg where named
[3] = rat, single oral, BAK 200 mg/kg, with ABT or GA 100 mg/kg where named

Compound: C=C[C@@](C)(/C=C/c1ccc(O)cc1)CCC=C(C)C [BAK, Bakuchiol]
BAK concentration in rat plasma, single rats 1-5 ([1]; 0.083 h after single oral dose): 19.440 ng/mL and 20.126 ng/mL and 124.551 ng/mL and 203.437 ng/mL and 45.002 ng/mL
BAK concentration in rat plasma, single rats 1-5 ([1]; 0.500 h after single oral dose): 298.348 ng/mL and 315.739 ng/mL and 248.132 ng/mL and 249.198 ng/mL
BAK concentration in rat plasma, single rats 1-5 ([1]; 1.000 h after single oral dose): 370.910 ng/mL and 622.012 ng/mL and 388.077 ng/mL and 359.422 ng/mL and 237.838 ng/mL
BAK concentration in rat plasma, single rats 1-5 ([1]; 2.000 h after single oral dose): 741.835 ng/mL and 1388.336 ng/mL and 509.873 ng/mL and 610.667 ng/mL and 641.059 ng/mL
BAK concentration in rat plasma, single rats 1-5 ([1]; 4.000 h after single oral dose): 1167.913 ng/mL and 614.550 ng/mL and 628.766 ng/mL and 924.718 ng/mL
BAK concentration in rat plasma, single rats 1-5 ([1]; 8.000 h after single oral dose): 297.448 ng/mL and 580.240 ng/mL and 453.584 ng/mL and 180.567 ng/mL and 336.676 ng/mL
BAK concentration in rat plasma, single rats 1-5 ([1]; 12.00 h after single oral dose): 101.667 ng/mL and 221.273 ng/mL and 140.087 ng/mL and 93.481 ng/mL and 214.562 ng/mL
BAK concentration in rat plasma, single rats 1-5 ([1]; 24.00 h after single oral dose): 76.407 ng/mL and 58.961 ng/mL and 54.579 ng/mL and 73.723 ng/mL
Cmax [1, 2]: 887 ± 281 ng/mL
MRT [1, 2]: 6.79 ± 0.43 h
Tmax [1, 2]: 3.6 ± 0.89 h
AUC(0-t) ([1]; Sprague-Dawley, plasma, rat, single oral, BAK 200 mg/kg, with ABT or GA 100 mg/kg where named, read-out: AUC0−24 of BAK): 7260 ng·h/mL
concentration at 0.083 h ([1]; Sprague-Dawley, rat, plasma, po, 200 mg/kg, 0.083 h after single oral dose): 82.5 ng/mL
concentration at 0.5 h ([1]; Sprague-Dawley, rat, plasma, po, 200 mg/kg, 0.500 h after single oral dose, read-out: BAK concentration in rat plasma, mean): 273 ng/mL
concentration at 0.5 h ([1]; Sprague-Dawley, rat, plasma, po, 200 mg/kg, 0.500 h after single oral dose, read-out: BAK concentration in rat plasma, single rats 1-5): 256 ng/mL
concentration at 1 h ([1]; Sprague-Dawley, rat, plasma, po, 200 mg/kg, 1.000 h after single oral dose): 396 ng/mL
concentration at 2 h ([1]; Sprague-Dawley, rat, plasma, po, 200 mg/kg, 2.000 h after single oral dose): 778 ng/mL
concentration at 4 h ([1]; Sprague-Dawley, rat, plasma, po, 200 mg/kg, 4.000 h after single oral dose, read-out: BAK concentration in rat plasma, mean): 843 ng/mL
concentration at 4 h ([1]; Sprague-Dawley, rat, plasma, po, 200 mg/kg, 4.000 h after single oral dose, read-out: BAK concentration in rat plasma, single rats 1-5): 881 ng/mL
concentration at 8 h ([1]; Sprague-Dawley, rat, plasma, po, 200 mg/kg, 8.000 h after single oral dose): 370 ng/mL
concentration at 12 h ([1]; Sprague-Dawley, rat, plasma, po, 200 mg/kg, 12.00 h after single oral dose): 154 ng/mL
concentration at 24 h ([1]; Sprague-Dawley, rat, plasma, po, 200 mg/kg, 24.00 h after single oral dose, read-out: BAK concentration in rat plasma, mean): 68.1 ng/mL
concentration at 24 h ([1]; Sprague-Dawley, rat, plasma, po, 200 mg/kg, 24.00 h after single oral dose, read-out: BAK concentration in rat plasma, single rats 1-5): 76.9 ng/mL
concentration at 24 h ([1]; Sprague-Dawley, rat, plasma, po, 200 mg/kg, rat, 24 h after single oral dose, read-out: Exposure of BAK, Plasma, mean): 68.1 ng/g
concentration at 24 h ([1]; Sprague-Dawley, rat, plasma, po, 200 mg/kg, rat, 24 h after single oral dose, read-out: Exposure of BAK, Plasma, single rats): 76.9 ng/g
Exposure of BAK, Plasma, single rats ([1]; rat, 24 h after single oral dose): 0.0764 µg/g and 0.0590 µg/g and 0.0546 µg/g and 0.0737 µg/g
CL of BAK [1, 3]: 28.20 ± 7.91 L/h/kg
V of BAK [1, 3]: 184.2 ± 58.6 L/kg
t1∕2 of BAK [1, 3]: 4.71 ± 1.56 h

IC50 (CYP1A2; HLMs, 30 min pre-incubation with NADPH, phenacetin 25 µM): 61.1 ± 1.13 µM
activity at 30 min, 156.25 µM (CYP1A2; human, human liver microsomes (HLMs), probe phenacetin 25 µM, CYP1A2-30min, GA 156.2500, vs control, read-out: Relative activity (%)): 18.2%
activity at 30 min, 312.5 µM (CYP1A2; human, human liver microsomes, probe phenacetin 25 µM, CYP1A2-30min, GA 312.5000, vs control, read-out: Relative activity (%)): 14.1%
activity at 30 min, 1000 µM (CYP1A2; human, human liver microsomes, probe phenacetin 25 µM, CYP1A2-30min, GA 1000.0000, vs control, read-out: Relative activity (%)): 5.73%
activity at 30 min, […] (CYP1A2; human, human liver microsomes, probe phenacetin 25 µM, read-out: Relative activity (%)): 10.3%
activity at 30 min, 0.1 µM (CYP1A2; human, human liver microsomes, probe phenacetin (25 µM), CYP1A2-30min, GA 0.1000, vs control, read-out: Relative activity (%)): 95%
activity at 30 min, 1 µM (CYP1A2; human, human liver microsomes, probe phenacetin (25 µM), CYP1A2-30min, GA 1.0000, vs control, read-out: Relative activity (%)): 84.3%
activity at 30 min, 6.25 µM (CYP1A2; human, human liver microsomes, probe phenacetin (25 µM), CYP1A2-30min, GA 6.2500, vs control, read-out: Relative activity (%)): 89.2%
activity at 30 min, 31.25 µM (CYP1A2; human, human liver microsomes, probe phenacetin (25 µM), CYP1A2-30min, GA 31.2500, vs control, read-out: Relative activity (%)): 70.9%
activity at 30 min, 100 µM (CYP1A2; human, human liver microsomes, probe phenacetin (25 µM), CYP1A2-30min, GA 100.0000, vs control, read-out: Relative activity (%)): 31%
IC50 (CYP2C9; HLMs, 30 min pre-incubation with NADPH, tolbutamide 25 µM): 26.5 ± 3.08 µM
activity at 30 min, 0.1 µM (CYP2C9; human, human liver microsomes, probe tolbutamide 25 µM, CYP2C9-30min, GA 0.1000, vs control, read-out: Relative activity (%)): 114%
activity at 30 min, 1 µM (CYP2C9; human, human liver microsomes, probe tolbutamide 25 µM, CYP2C9-30min, GA 1.0000, vs control, read-out: Relative activity (%)): 81%
activity at 30 min, 6.25 µM (CYP2C9; human, human liver microsomes, probe tolbutamide 25 µM, CYP2C9-30min, GA 6.2500, vs control, read-out: Relative activity (%)): 76.2%
activity at 30 min, 31.25 µM (CYP2C9; human, human liver microsomes, probe tolbutamide 25 µM, CYP2C9-30min, GA 31.2500, vs control, read-out: Relative activity (%)): 56.1%
activity at 30 min, 100 µM (CYP2C9; human, human liver microsomes, probe tolbutamide 25 µM, CYP2C9-30min, GA 100.0000, vs control, read-out: Relative activity (%)): 48.9%
activity at 30 min, 156.25 µM (CYP2C9; human, human liver microsomes, probe tolbutamide 25 µM, CYP2C9-30min, GA 156.2500, vs control, read-out: Relative activity (%)): 46.2%
activity at 30 min, 312.5 µM (CYP2C9; human, human liver microsomes, probe tolbutamide 25 µM, CYP2C9-30min, GA 312.5000, vs control, read-out: Relative activity (%)): 18.1%
activity at 30 min, […] (CYP2C9; human, human liver microsomes, probe tolbutamide 25 µM, read-out: Relative activity (%)): 35.9%
activity at 30 min, 1000 µM (CYP2C9; human, human liver microsomes, probe tolbutamide (25 µM), CYP2C9-30min, GA 1000.0000, vs control, read-out: Relative activity (%)): 14.9%
IC50 (CYP2C19; HLMs, 30 min pre-incubation with NADPH, mephenytoin 25 µM): 175.2 ± 1.26 µM
activity at 30 min, 0.1 µM (CYP2C19; human, human liver microsomes, probe mephenytoin (25 µM), CYP2C19-30min, GA 0.1000, vs control, read-out: Relative activity (%)): 117%
activity at 30 min, 1 µM (CYP2C19; human, human liver microsomes, probe mephenytoin (25 µM), CYP2C19-30min, GA 1.0000, vs control, read-out: Relative activity (%)): 105%
activity at 30 min, 6.25 µM (CYP2C19; human, human liver microsomes, probe mephenytoin (25 µM), CYP2C19-30min, GA 6.2500, vs control, read-out: Relative activity (%)): 88%
activity at 30 min, 31.25 µM (CYP2C19; human, human liver microsomes, probe mephenytoin (25 µM), CYP2C19-30min, GA 31.2500, vs control, read-out: Relative activity (%)): 80%
activity at 30 min, 100 µM (CYP2C19; human, human liver microsomes, probe mephenytoin (25 µM), CYP2C19-30min, GA 100.0000, vs control, read-out: Relative activity (%)): 72.5%
activity at 30 min, 156.25 µM (CYP2C19; human, human liver microsomes, probe mephenytoin (25 µM), CYP2C19-30min, GA 156.2500, vs control, read-out: Relative activity (%)): 57.9%
activity at 30 min, 312.5 µM (CYP2C19; human, human liver microsomes, probe mephenytoin (25 µM), CYP2C19-30min, GA 312.5000, vs control, read-out: Relative activity (%)): 0%
activity at 30 min, […] (CYP2C19; human, human liver microsomes, probe mephenytoin (25 µM), read-out: Relative activity (%)): 36.8%
Compound: CC1(C)[C@@H](O)CC[C@]2(C)[C@H]3C(=O)C=C4[C@@H]5C[C@@](C)(C(=O)O)CC[C@]5(C)CC[C@@]4(C)[C@]3(C)CC[C@@H]12 [GA, Glycyrrhetinic acid]

— paper PMC5126668 (PeerJ, 2016)
